Measurements: the NIST ThermoML archive (doi:10.1021/je900852t)
Numbers after ± are expanded uncertainties.

Details: Crystal; visual observation

c1ccc2cc3ccccc3cc2c1 [anthracene]
Normal melting temperature: 215 ± 1 °C
